Laboratory results from patent US20030032078A1, “Methods and compositions for the treatment of macular and retinal degenerations” (Board of Regents, The University of Texas System, priority 2001, published 2003).
Entries after “also recorded” stand apart in the source; their conditions may differ. Where two headings read alike, the source gives them in different places.

Tests used:
[1] = system: microsomal membranes prepared from bovine RPE; test: Retinyl ester formation and isomerization from [3H]retinols in microsomal membranes from bovine RPE; assay type: biochemical
Protocol: The retinyl-ester content of fresh bovine ocular tissues were analyzed. Bovine RPE contained approximately 95% all-trans-retinyl esters (atRE) and 5% 1cRE. No retinyl esters were detectable in bovine retinas. When [^3H]atROL was added to microsomal membranes prepared from bovine RPE, the formation of [3H]atRE, and subsequent formation of [^3H]11cROL were observed. […] The isomeric inhibitor, 11-cis-retinyl α-bromoacetate (cRBA) was also synthesized. This agent suppressed the formation of [^3H]11cRE from [^3H]11cROL added to bovine-RPE membranes, but had no effect on the synthesis of [^3H]atRE or [^3H]11cROL from added [^3H]atROL. No ester-synthase activity was detected in bovine retinas. The results of these studies on rod-dominant bovine eyes are in full accord with the published results of other investigators (Rando et al., 1992; Saari et al., 1994; Crouch et al., 1996; Trehan et al., 1990).

[2] = system: membranes from chicken and ground squirrel retinas; test: Retinyl ester formation and isomerization from [3H]atROL in membranes from chicken and ground squirrel retinas; assay type: biochemical; details: chicken and ground squirrel retina membranes
From the text: There are striking differences in retinyl-ester content and retinoid turnover upon analysis of ocular tissues from cone-dominant ground squirrel and chicken. Chicken retinas contained 60% 11cRE and 40% atRE, while ground-squirrel retinas contained 80% 11cRE and 20% atRE. The ratio of cones to rods is 60:40 in chicken (Meyer et al., 1973), 96:4 in ground squirrel (West et al., 1975), 3:97 in mouse (Carter-Dawson et al., 1979), and 8:92 in bovine retina (Krebs et al., 1982). Thus, across multiple species, the level of 11cRE in retina is loosely correlated with the ratio of cone to rod photoreceptors. […] During time-course studies, [^3H]11cROL always preceded the appearance of [3H]11cRE. […] In particular, this new all-trans-retinol isomerase (atRI) is insensitive to tRBA. This insensitivity rules out the trivial explanation of RPE contamination in retinal membrane preparations. […] Unlike LRAT, this new ester synthase is not inhibited by tRBA or cRBA, and has high specificity for the 11cROL substrate.

LRAT = target: T1, LRAT (Bos taurus, UniProt Q9BGL2); details: Trehan et al., 1990; cited from earlier work
T1 construct: microsomal membranes prepared from bovine RPE; from tissue; host or cells: bovine retinal pigment epithelium, microsomal membranes
T1 sequence (Q9BGL2 1-230): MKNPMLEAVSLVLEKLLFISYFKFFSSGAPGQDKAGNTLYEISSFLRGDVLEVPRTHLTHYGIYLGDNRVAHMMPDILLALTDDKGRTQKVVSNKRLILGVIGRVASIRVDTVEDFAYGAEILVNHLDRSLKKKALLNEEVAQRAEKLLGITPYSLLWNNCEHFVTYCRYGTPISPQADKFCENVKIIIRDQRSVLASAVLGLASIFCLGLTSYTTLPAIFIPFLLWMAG

[3] = system: patients with retinitis pigmentosa (RP) and related retinal degenerations; details: supplemental lutein; Dagnelie et al., 2000; cited from earlier work
abcr−/− mice = test: A2E and A2PE-H2 levels in ocular tissues of abcr−/− mice treated with isotretinoin (HPLC); assay type: in vivo, mouse
Protocol: FIG. 7—A2E and A2PE-H2 in abcr−/− ocular tissues following treatment with isotretinoin. A2E and A2PE-H2 were extracted from the indicated tissues and analyzed by HPLC as previously described (Mata et al., 2000; Weng et al., 1999). (FIG. 7A) A2E levels in abcr−/− RPE from four-month-old mice treated for one month with isotretinoin at 40 mg/kg/day (4-mo 13cRA), four-month-old mice treated with DMSO carrier alone (4-mo DMSO), and three-month-old untreated mice (3-mo untreated). (FIG. 7B) A2PE-H2 levels in abcr−/− RPE from the same animals in panel (A) plus four-month-old untreated mice (4-mo untreated). (FIG. 7C) A2PE-H2 levels in abcr−/− retinas from the same animals in panel (B). All data are shown as milliabsorption units (mAU) at the indicated wavelengths±SEM (n=3).
Tissue Preparation and Extraction. Mouse and human tissues were homogenized in 1 ml of PBS. For analysis of mouse outer segments, dissected retinas were shaken on a vortex mixer in 8% Optiprep/Ringer's buffer and fractionated by centrifugation through an Optiprep step-gradient according to the procedure of Tsang et al. (1998). Collected outer segments were suspended in 1 ml PBS and homogenized. 1 ml of chloroform/methanol (2:1, v/v) was added to each homogenate. Phospholipids and chloroform-soluble fluorophores were extracted twice from the samples following addition of 4 ml of chloroform and 3 ml water. The pooled organic phases were dried under a stream of argon. Sample residues were resuspended in 200- 400 μl of hexane, and analyzed by HPLC.
Sample extracts were analyzed by normal phase HPLC using an HP 1100 liquid chromatograph with a photodiode array detector. Chromatography conditions were as previously described (Birnbach et al., 1994) using a silica column (Microsorb 5 μm Si, 250×4.6 mm) and the mobile phase: hexane/2-propanol/ethanol/25 mM potassium phosphate/acetic acid (485:376:100:40:0.275, v/v; pH 7.0). For A2PE-H2 purification, the water content was reduced to 2.5% for better resolution of fatty acyl esters. Spectra for the eluted peaks were corrected by subtracting the nearest integrated baseline to remove solvent absorption. A2-E, phosphatidylethanolamine, and all-trans-RAL were quantitated by comparing the sample peak-area to a calibration curve constructed with authentic standards (18:0-22:6 for the phosphatidylethanolamine standard) (Birnbach et al., 1994). […] In Table 6, APE and protonated-APE were quantitated using published molar extinction coefficients (Anderson et al., 1996).
Three-month-old abcr−/− mice were treated with isotretinoin (13 cis retinoic acid) for one month.

wild-type mice = test: Retinoid profile after intraperitoneal injection of isotretinoin into light-adapted wild-type mice; assay type: in vivo, mouse
From the text: (§1) Long delays in 11cRAL regeneration are also observed after a photobleach in mice treated with isotretinoin. This alteration in the retinoid profile is similar to the pattern in 11cRDH knockout-mice (Driessen et al., 2000).

mice [4] = test: Photoreceptor degeneration by histologic or electroretinographic (ERG) analysis after prolonged isotretinoin treatment; assay type: in vivo, mouse; details: prolonged treatment at doses up to 50 mg/kg/day (25× the maximum human dose)
From the text: as §1

11cRDH = details: Law et al., 1989, Gamble et al., 1999, cited from earlier work
mice [5] = details: Yuschak et al., 1993; cited from earlier work
[6] = humans; cited from earlier work
humans = details: clinical use for acne; due to impaired regeneration of rhodopsin; cited from earlier work
[7] = Isotretinoin in retina and RPE by HPLC analysis after intraperitoneal injection
[8] = system: patients with neovascularisation extending under the center of the retina; details: cited from earlier work
rodent model = details: cited from earlier work
[9] = light-adapted wild-type mice, intraperitoneal injection

CC1=C(/C=C/C(C)=C/C=C/C(C)=C/COC(=O)CBr)C(C)(C)CCC1 [tRBA, all-trans-retinyl α-bromoacetate]
formation of [3H]11cRE from added [3H]11cROL [1]: completely inhibited
formation of atRE and 11cROL from added [3H]atROL [1]: completely suppressed
formation of [3H]11cROL or [3H]11cRE from added [3H]atROL [2]: no effect
formation of [3H]atRE from added [3H]atROL [2]: completely suppressed
inhibition of LRAT (LRAT): potent inhibitor

CC1=C[C@H](O)CC(C)(C)[C@H]1/C=C/C(C)=C/C=C/C(C)=C/C=C/C=C(C)/C=C/C=C(C)/C=C/C1=C(C)C[C@@H](O)CC1(C)C [lutein]
effect on vision [3]: short term improvements in vision

CC1=C(/C=C/C(C)=C/C=C\C(C)=C/COC(=O)CBr)C(C)(C)CCC1 [cRBA, 11-cis-retinyl α-bromoacetate]
formation of [3H]11cRE from added [3H]11cROL [1]: suppressed
formation of atRE and 11cROL from added [3H]atROL [1]: no effect
synthesis of [3H]11cRE [2]: no effect

CC1=C(/C=C/C(C)=C/C=C/C(C)=C\C(=O)O)C(C)(C)CCC1 [isotretinoin, 13-cis-retinoic acid]
suppression of A2E accumulation in RPE (abcr−/− mice; abcr−/− mice, isotretinoin 40 mg/kg/day for one month, FIG. 7A): approximately two-fold
suppression of A2PE-H2 accumulation in RPE (abcr−/− mice; abcr−/− mice, isotretinoin 40 mg/kg/day for one month, FIG. 7B): approximately three-fold
A2PE-H2 in retina (abcr−/− mice; four-month-old abcr−/− mice after one month of isotretinoin, FIG. 7C): near absence; also recorded: virtually undetectable
A2E in RPE, level relative to sham-treated (DMSO) controls (abcr−/− mice; four-month-old abcr−/− mice treated for one month with isotretinoin at 40 mg/kg/day): approximately 50%
11cRAL and atRAL in outer segments (wild-type mice; [9]): Profound depletion
11cRE in RPE cells (wild-type mice; [9]): accumulation
11cRAL regeneration after a photobleach (wild-type mice; mice treated with isotretinoin): Long delays
photoreceptor degeneration by histologic or electroretinographic (ERG) analysis (mice [4]): No photoreceptor degeneration
inhibition of 11cRDH in RPE (11cRDH): potent inhibitor
inhibition of 11cRDH in RPE (11cRDH; listed as Isotretinoin): inhibit 11cRDH
tolerated dose (mice [5]): up to 400 mg/kg/day
serum half-life [6]: 10 to 20 h
side effect night blindness (humans): common side effect
detection in retina and RPE ([7]; five minutes following an intraperitoneal injection): detected
tissue concentrations ([7]; one hour following a single injection at 4 mg/kg): micromolar range

verteporfin
risk of moderate and severe vision loss ([8]; at one year, reduced from 61%): 33%
risk of moderate and severe vision loss ([8]; at two years, reduced from 69%): 41%

B1: Glial Derived Neurotrophic Factor: a survival factor which has slowed degeneration in a rodent model (protein, UniProt P39905 78-211, looked up)
Glial cell line-derived …: SPDKQMAVLPRRERNRQAAAANPENSRGKGRRGQRGKNRGCVLTAIHLNVTDLGLGYETKEELIFRYCSGSCDAAETTYDKILKNLSRNRRLVSDKVGQACCRPIAFDDDLSFLDDNLVYHILRKHSAKRCGCI
effect on retinal degeneration (rodent model): slowed degeneration
